Key:
[1] = background art; cited from earlier work
zebrafish [2] = conditions: zebrafish whose brain is damaged by PTZ or the like; stated as known; cited from earlier work
zebrafish [3] = assay: Dark/light transition of zebrafish; type: in vivo; conditions: dark and light conditions at 10-minute intervals, distance moved at 2-minute intervals; FIGS. 3, 4, 5
Procedure: The dark/light transition of zebrafish treated with the fermented rice bran powder obtained according to Example 1 was measured. Specifically, dark and light conditions were given at 10-minute intervals, and graphs for the distance moved at 2-minute intervals were measured (see FIGS. 3, 4, and 5).

SMILES: O=C(O)CCCO [GHB, Gamma hydroxybutyrate]
- half-life (in words) [1]: short half-life

SMILES: C1CCc2nnnn2CC1 [PTZ, Pentylenetetrazol]
- color recognition (zebrafish [2]): color cannot be normally recognized
- behavior pattern to dark/light (distance moved) (zebrafish [3]): moved regardless of the light/dark division

SMILES: NC(=O)C[S+]([O-])C(c1ccccc1)c1ccccc1 (stereo not shown) [modafinil, Modafinil]
- half-life [1]: ≥ 15 h

Source: US20220296667A1, “COMPOSITION FOR A[…] TREATING NARCOLEPSY, […] RICE BRAN POWDER AS ACTIVE INGREDIENT, AND PREPARATION METHOD THEREFOR” (RAPHAGEN, priority 2019, published 2022)
